Results from article PMC3959589 (Analytical and bioanalytical chemistry, 2014).

How the values were obtained:
plasma protein = settings: cited from earlier work
[1] = biological target: T1, human serum albumin (HSA) (Homo sapiens, UniProt P02768); settings: dose-response, 500 nM Red Mega 500, 0.2 mg/mL HSA
[2] = biological target: T1, human serum albumin (HSA); assay: biochemical

T1 sequence (P02768 25-609): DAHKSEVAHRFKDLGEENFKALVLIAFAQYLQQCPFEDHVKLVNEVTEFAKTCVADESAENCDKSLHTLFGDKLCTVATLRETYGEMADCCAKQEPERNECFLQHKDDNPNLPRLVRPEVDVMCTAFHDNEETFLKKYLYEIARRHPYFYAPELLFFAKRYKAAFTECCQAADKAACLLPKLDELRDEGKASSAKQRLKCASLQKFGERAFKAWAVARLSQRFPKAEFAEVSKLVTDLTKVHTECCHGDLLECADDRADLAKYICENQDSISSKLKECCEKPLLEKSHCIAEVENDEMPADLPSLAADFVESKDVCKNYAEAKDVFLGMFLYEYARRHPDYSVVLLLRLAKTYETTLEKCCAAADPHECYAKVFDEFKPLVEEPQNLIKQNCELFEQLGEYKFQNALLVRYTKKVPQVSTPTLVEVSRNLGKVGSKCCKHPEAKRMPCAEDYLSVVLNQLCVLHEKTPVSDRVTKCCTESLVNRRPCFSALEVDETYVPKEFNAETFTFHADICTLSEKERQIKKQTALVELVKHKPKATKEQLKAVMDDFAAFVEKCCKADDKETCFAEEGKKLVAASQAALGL

Row | SMILES | plasma protein binding class (low / medium / high) (plasma protein) | efficacy of inhibition of HSA–Red Mega 500 binding [1] | IC50 [2] [µM]
1 | CC/C(=C(/CC)c1ccc(O)cc1)c1ccc(O)cc1 [diethylstilbestrol] | medium | weaker efficacy | 4.4 ± 1.9
2 | Cc1c(OCC(F)(F)F)ccnc1C[S+]([O-])c1nc2ccccc2[nH]1 (stereo not drawn) [lansoprazole] | high |  | 
3 | COc1ccc2[nH]c([S+]([O-])Cc3ncc(C)c(OC)c3C)nc2c1 (stereo not drawn) [omeprazole] | high |  | 
4 | CN1C(C(=O)Nc2ccccn2)=C(O)c2ccccc2S1(=O)=O [piroxicam] | high |  | 
